# Measurements: publication PMC7076875 (2020)
# System: apt 32 (DNA, aptamer) AAAAAAAAAAAAGGGCACGTGTTGTCTCTCTGTGTCTCGTGCCC
# Experiment: lateral flow strip, competition with complementary strand
# Details: 120 mM NaCl, 5 mM KCl, 200 mM MgCl2; 10 mM Tris pH 7.4, 5% methanol, room temperature; immobilised probe 2 competes; tested at 100 ng/mL
row,binding,Structure (SMILES)
1,no,C[C@H]1CCCC(=O)CCC/C=C/c2cc(O)cc(O)c2C(=O)O1
2,no,C[C@@H]1Cc2c(Cl)cc(C(=O)N[C@@H](Cc3ccccc3)C(=O)O)c(O)c2C(=O)O1
3,no,CCCC[C@@H](C)[C@@H](OC(=O)C[C@@H](CC(=O)O)C(=O)O)[C@H](C[C@@H](C)C[C@H](O)CCCC[C@@H](O)C[C@H](O)[C@H](C)N)OC(=O)C[C@@H](CC(=O)O)C(=O)O
